In US20100197745A1, “GAMMA-GLUTAMYL TRANSPEPTIDASE INHIBITORS AND METHODS OF USE” (priority 2008, published 2010):
“Also recorded” adds a separate entry of the source. Read-outs that look alike come from different tables or passages of the source. Each block holds one compound with its values, some of them ahead of it. Residues, ends and D or L forms follow the SMILES beside them.

Columns and labels:
786-O cells = assay: Cytotoxicity assay (MTT, 72 hr) in dividing 786-O cells; assay type: cell-based
Protocol: 786-O (ATCC CRL-1932), a human renal cell adenocarcinoma line, was plated in DMEM supplemented with 5% FBS and penicillin/streptomycin (50 U/mL, 50 ug/mL) at 10^3 cells per well in 96-well plates. The next day the medium was changed to fresh DMEM containing FBS, antibiotics and the test compound. Equivalent concentrations of DMSO were added to control wells. Cell viability was determined by the MTT assay 72 hr after the addition of the test compound (20).
A two-tailed t-test was used to detect significant differences between OU749 inhibition of human GGT and inhibition of GGT from other species.

[1] = test system: metastatic melanoma to the liver; settings: acivicin used to deplete tumor GSH in combination with aggressive therapy (ref. 4); cited from earlier work
[2] = molecular target: T1, GGT isolated from human kidney (Homo sapiens, UniProt P19440); assay: GGT transpeptidation kinetic assay (GpNA / glycyl-glycine) with GGT isolated from human kidney; assay type: biochemical; settings: for Michaelis constant of the substrate (Kglygly, KGpNA): human kidney GGT
T1 construct: GGT was isolated from human kidney; tissue National Disease Research Interchange, Philadelphia, PA; host or cells: human kidney, Triton X-100 extract of microsomes
T1 sequence (P19440 1-380 limits assumed): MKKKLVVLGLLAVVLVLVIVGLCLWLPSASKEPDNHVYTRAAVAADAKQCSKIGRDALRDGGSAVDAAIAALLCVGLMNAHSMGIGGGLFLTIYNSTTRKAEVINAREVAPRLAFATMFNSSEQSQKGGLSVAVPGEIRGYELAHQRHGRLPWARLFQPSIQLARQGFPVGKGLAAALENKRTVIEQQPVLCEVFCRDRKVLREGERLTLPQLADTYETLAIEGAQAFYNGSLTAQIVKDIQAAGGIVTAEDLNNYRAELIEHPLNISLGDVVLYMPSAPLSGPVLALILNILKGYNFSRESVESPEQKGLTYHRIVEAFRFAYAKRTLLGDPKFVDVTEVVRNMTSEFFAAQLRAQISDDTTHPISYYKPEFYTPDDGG
T1 sequence (P19440 381-569 limits assumed): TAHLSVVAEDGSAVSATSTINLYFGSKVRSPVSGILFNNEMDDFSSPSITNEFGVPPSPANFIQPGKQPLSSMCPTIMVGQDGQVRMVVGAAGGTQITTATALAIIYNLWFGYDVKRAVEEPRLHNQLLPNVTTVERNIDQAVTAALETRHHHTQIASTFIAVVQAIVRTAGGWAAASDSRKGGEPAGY
Protocol: (§1) An assay method was developed to screen for inhibitors of GGT. The assays were conducted in 96-well plates. The final volume in each well was 100 μL. The assay buffer contained: 100 mM Na2HPO4 pH 7.4, with 3.2 mM KCI, 1.8 mM KH2PO4, and 27.5 mM NaCl. Each reaction contained 1 mM L-glutamic acid γ-4-nitroanilide HCI (GpNA) and 40 mM glycyl-glycine (Gly-Gly)(19). GGT is expressed on the cell surface and the assay was initiated by addition of 10^4 786-O cells (ATCC CRL-1932, a GGT-positive human renal cell adenocarcinoma line).
(§2) GGT was isolated from human kidney (National Disease Research Interchange, Philadelphia, PA), male Sprague-Dawley rat kidney and female Balb/c mouse kidney. Tissue was homogenized in 4 volumes of 25 mM Tris pH 7.5, containing 0.33 M sucrose, 0.2 mM EDTA, 1 μM leupeptin and 1.4 μg/ml aprotinin. A 9000 g supernatant was spun at 100,000 g for 1 h. The microsomal pellet was homogenized in 25 mM Tris pH 7.35, 0.5% Triton X-100, 1 μM leupeptin, 1.4 μg/ml aprotinin then centrifuged again at 100,000 g for 1 h. The supernatant was assayed for GGT activity, aliquoted, and stored at −80° C. until further use. All solutions were maintained at 4° C. throughout the isolation. The specific activities of GGT were 3.4, 7.4, and 1.5 units/mg protein for human, rat, and mouse preparations, respectively. Prior to use in the GGT assay, the enzyme was diluted in phosphate-buffered saline (PBS) containing 0.025% Triton X-100 and 0.19 m Units of enzyme were used per assay unless otherwise indicated.
(§3) The concentrations of the substrate GpNA and the acceptor Gly-Gly were varied as indicated. Purified GGT was added to initiate the assay. The reaction was monitored as described for the high throughput screening.
Initial velocity data were first analyzed graphically using double-reciprocal plots of initial velocities versus substrate concentration and suitable secondary plots.
Data for competitive and uncompetitive inhibition were fitted using Equations 1 and 2.

[3] = molecular target: T2, human GGT expressed in Pichia pastoris (Homo sapiens, UniProt P19440); assay: GGT kinetic assay with purified human GGT expressed in Pichia pastoris; assay type: biochemical
T2 construct: The soluble domain of human GGT (amino acids 28-569) was amplified by PCR; His6 (TEV protease-cleavable) (N, cleaved yes); made in house; host or cells: Pichia pastoris strain X-33 (pPICZαA, plasmid pMW-102), secreted
T2 sequence (P19440 28-569): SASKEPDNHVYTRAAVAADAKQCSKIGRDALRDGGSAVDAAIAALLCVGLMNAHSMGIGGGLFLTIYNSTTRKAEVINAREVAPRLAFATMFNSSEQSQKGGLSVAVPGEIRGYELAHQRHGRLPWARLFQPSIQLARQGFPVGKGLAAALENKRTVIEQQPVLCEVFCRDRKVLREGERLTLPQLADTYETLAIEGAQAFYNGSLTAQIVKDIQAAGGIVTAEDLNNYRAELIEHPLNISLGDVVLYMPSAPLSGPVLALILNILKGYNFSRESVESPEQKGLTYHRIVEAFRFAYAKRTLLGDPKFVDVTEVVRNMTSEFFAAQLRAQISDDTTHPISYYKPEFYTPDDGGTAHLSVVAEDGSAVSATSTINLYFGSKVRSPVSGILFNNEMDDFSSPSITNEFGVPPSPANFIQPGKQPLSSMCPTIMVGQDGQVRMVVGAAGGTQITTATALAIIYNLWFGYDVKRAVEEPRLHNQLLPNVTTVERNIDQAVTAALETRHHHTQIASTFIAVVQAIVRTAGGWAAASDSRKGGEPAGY
From the text: The soluble domain of human GGT (amino acids 28-569) was amplified by PCR. The forward primer introduced a EcoRI restriction site and a TEV protease-cleavable N-terminal His6 tag, while the reverse primer introduced a NotI restriction site after the stop codon of genomic GGT. The PCR product was digested with EcoRI and Not I and inserted into the corresponding sites of pPICZαA (Invitrogen), generating plasmid pMW-102. This construct was amplified in E. coli DH5α cells. The fidelity of the recombinant ORF was verified by sequencing (Oklahoma Medical Research Foundation's DNA Sequencing Core Facility, Oklahoma City, Okla.). The SacI-linearized plasmid, pMW-102, was purified and transformed into wild-type Pichia pastoris strain X-33, selected and induced as recommended by Invitrogen. Secreted, recombinant, His6-tagged, human GGT was collected from the media with a Ni-NTA column. The hexahistidine tag was cleaved with His6-tagged TEV protease. […]
The concentrations of the substrate GpNA and the acceptor Gly-Gly were varied as indicated. […] The reaction was monitored as described for the high throughput screening.
Initial velocity data were first analyzed graphically using double-reciprocal plots of initial velocities versus substrate concentration and suitable secondary plots. […]

[4] = molecular target: T3, GGT isolated from rat kidney (Rattus norvegicus, UniProt P07314); assay: Inhibition of GGT isolated from rat kidney; assay type: biochemical; settings: rat kidney GGT (FIG. 5A)
T3 construct: male Sprague-Dawley rat kidney; from tissue; host or cells: male Sprague-Dawley rat kidney, Triton X-100 extract of microsomes
Protocol: as §2, §3

GGT from mouse kidney = molecular target: T4, GGT from mouse kidney (Mus musculus, UniProt Q60928); assay: Inhibition of GGT isolated from mouse kidney; assay type: biochemical; settings: mouse kidney GGT (FIG. 5A)
T4 construct: female Balb/c mouse kidney; from tissue; host or cells: female Balb/c mouse kidney, Triton X-100 extract of microsomes
T4 sequence (Q60928 whole entry): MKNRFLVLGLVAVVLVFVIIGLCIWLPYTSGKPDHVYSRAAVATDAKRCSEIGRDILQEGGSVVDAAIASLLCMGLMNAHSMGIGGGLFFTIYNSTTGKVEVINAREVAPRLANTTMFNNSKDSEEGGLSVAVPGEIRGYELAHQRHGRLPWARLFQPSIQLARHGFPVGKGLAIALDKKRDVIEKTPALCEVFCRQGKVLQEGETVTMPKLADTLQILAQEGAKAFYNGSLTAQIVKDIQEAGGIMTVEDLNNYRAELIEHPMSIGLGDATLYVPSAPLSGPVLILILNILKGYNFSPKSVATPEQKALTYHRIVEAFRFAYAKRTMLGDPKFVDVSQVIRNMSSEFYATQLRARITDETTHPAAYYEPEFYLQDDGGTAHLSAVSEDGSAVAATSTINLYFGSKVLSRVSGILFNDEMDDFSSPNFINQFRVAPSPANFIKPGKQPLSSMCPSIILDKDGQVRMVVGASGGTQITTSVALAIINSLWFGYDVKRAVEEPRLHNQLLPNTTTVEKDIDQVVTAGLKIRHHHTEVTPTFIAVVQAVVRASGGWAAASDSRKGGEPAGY
Protocol: as §2, §3

[5] = molecular target: T5, GGT in 786-O and HK-2 cells (Homo sapiens, UniProt P19440); assay: Inhibition of cell-surface GGT in human kidney cell lines; assay type: cell-based; settings: 786-O and HK-2 (FIG. 5B)
T5 construct: GGT is expressed on the cell surface; CRL-2190 (HK-2); host or cells: 786-O human renal adenocarcinoma cells; HK-2 human proximal tubule cells
T5 sequence (P19440 whole entry): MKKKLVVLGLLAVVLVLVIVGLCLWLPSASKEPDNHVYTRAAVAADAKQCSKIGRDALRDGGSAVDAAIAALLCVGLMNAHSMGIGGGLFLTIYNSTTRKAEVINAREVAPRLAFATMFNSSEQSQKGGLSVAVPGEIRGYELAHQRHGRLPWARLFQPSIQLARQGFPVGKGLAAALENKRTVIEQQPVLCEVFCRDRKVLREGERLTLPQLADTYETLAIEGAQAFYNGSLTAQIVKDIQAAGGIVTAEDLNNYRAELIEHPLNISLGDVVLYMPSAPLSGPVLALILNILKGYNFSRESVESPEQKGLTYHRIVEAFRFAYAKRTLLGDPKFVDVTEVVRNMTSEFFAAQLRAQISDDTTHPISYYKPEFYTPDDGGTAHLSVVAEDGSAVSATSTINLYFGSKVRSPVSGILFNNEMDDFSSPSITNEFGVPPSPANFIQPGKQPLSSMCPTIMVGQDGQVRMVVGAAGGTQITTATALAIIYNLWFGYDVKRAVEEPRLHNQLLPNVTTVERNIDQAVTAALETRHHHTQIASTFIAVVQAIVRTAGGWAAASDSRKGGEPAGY
Protocol: as §1
(§4) LLC-PKI (ATCC CRL 1392), a pig kidney cell line, NRK-52E (ATCC CRL-1571), a normal rat kidney cell line, LLC-MK2 (ATCC CCL-7), a normal kidney monkey cell line, and 786-O cells were grown in complete Dulbecco's Modified Eagle's Medium (DMEM) supplemented with 5% FBS (Hyclone, Logan, Utah), and penicillin/streptomycin (50 U/mL, 50 μg/mL) (Invitrogen, Carlsbad, Calif.). NIH/3T3 cells transfected with cDNA encoding human GGT were described previously and were grown in DMEM/F12 containing 200 μg/mL of G418 (6). HK-2 (ATCC CRL-2190), a human cell line derived from immortalized normal proximal tubule cells, were grown in keratinocyte serum-free media (K-SFM) from ATCC (Manassas, Va.). The cells were trypsinized off the plates and suspended in PBS for the GGT assay.

GGT in NRK-52E cells = molecular target: T6, GGT in NRK-52E cells (Rattus norvegicus, UniProt P07314); assay: Inhibition of cell-surface GGT in rat kidney cell line; assay type: cell-based; settings: NRK-52E (FIG. 5B)
T6 construct: NRK-52E (ATCC CRL-1571), a normal rat kidney cell line; host or cells: NRK-52E rat kidney cells
Protocol: as §1, §4

GGT in LLC-PK1 cells = molecular target: T7, GGT in LLC-PK1 cells (Sus scrofa, UniProt P20735); assay: Inhibition of cell-surface GGT in pig kidney cell line; assay type: cell-based; settings: LLC-PK1 (FIG. 5B)
T7 construct: LLC-PKI (ATCC CRL 1392), a pig kidney cell line; host or cells: LLC-PK1 pig kidney cells
T7 sequence (P20735 whole entry): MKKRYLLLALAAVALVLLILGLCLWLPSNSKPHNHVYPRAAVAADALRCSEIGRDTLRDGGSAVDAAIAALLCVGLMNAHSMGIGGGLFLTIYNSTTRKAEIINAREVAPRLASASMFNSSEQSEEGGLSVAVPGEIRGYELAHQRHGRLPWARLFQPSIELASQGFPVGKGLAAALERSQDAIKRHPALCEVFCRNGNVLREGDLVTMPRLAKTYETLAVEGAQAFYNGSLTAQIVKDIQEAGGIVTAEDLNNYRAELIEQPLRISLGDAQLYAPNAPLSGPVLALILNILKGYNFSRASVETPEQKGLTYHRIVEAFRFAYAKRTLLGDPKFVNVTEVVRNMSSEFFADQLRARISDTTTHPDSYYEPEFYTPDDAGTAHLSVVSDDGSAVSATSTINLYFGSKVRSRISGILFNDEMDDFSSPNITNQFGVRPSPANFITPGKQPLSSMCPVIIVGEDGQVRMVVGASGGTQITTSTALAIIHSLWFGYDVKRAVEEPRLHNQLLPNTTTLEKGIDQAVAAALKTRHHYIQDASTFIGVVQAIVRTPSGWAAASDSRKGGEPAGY
Protocol: as §1, §4

GGT in LLC-MK2 cells = assay: Inhibition of cell-surface GGT in monkey kidney cell line; assay type: cell-based; settings: LLC-MK2 (FIG. 5B)
Protocol: as §1, §4

[6] = molecular target: T8, human GGT expressed in mouse NIH3T3 fibroblasts (Homo sapiens, UniProt P19440); assay: Inhibition of human GGT expressed in mouse NIH3T3 fibroblasts; assay type: cell-based; settings: NIH3T3 transfected with human GGT cDNA (FIG. 5B)
T8 construct: expressed in transfected cells; host or cells: NIH/3T3 mouse fibroblasts, G418-selected
T8 sequence (P19440 whole entry): as the sequence (P19440 whole entry) above
Protocol: as §1, §4

human kidney GGT = molecular target: T9, human kidney GGT (Homo sapiens, UniProt P19440); assay: Glutathione degradation by human kidney GGT; assay type: biochemical
T9 construct: GGT was isolated from human kidney; tissue National Disease Research Interchange, Philadelphia, PA; host or cells: human kidney, Triton X-100 extract of microsomes
T9 sequence (P19440 1-380 limits assumed): as the sequence (P19440 1-380 limits assumed) above
T9 sequence (P19440 381-569 limits assumed): as the sequence (P19440 381-569 limits assumed) above
Protocol: (§5) An incubation mixture contained 1 mM glutathione, 40 mM glycyl-glycine, and inhibitor in the GGT assay buffer. Reactions were initiated with the addition of 1.9 mU of GGT and incubated at 37° C. The final volume of the reaction was 100 μL. Aliquots of the reaction mixture were removed at the specified time points, immediately acidified with an equal volume of cold 4.31% 5-sulfosalicylic acid, and maintained at 4° C. until glutathione concentration was determined by the method of Tietze (21).

GGT from rat kidney = molecular target: T10, GGT from rat kidney (Rattus norvegicus, UniProt P07314); assay: Glutathione degradation by rat kidney GGT; assay type: biochemical; settings: 1 mM glutathione, 40 mM glycylglycine (FIG. 6B)
T10 construct: male Sprague-Dawley rat kidney; from tissue; host or cells: male Sprague-Dawley rat kidney, Triton X-100 extract of microsomes
T10 sequence (P07314 whole entry): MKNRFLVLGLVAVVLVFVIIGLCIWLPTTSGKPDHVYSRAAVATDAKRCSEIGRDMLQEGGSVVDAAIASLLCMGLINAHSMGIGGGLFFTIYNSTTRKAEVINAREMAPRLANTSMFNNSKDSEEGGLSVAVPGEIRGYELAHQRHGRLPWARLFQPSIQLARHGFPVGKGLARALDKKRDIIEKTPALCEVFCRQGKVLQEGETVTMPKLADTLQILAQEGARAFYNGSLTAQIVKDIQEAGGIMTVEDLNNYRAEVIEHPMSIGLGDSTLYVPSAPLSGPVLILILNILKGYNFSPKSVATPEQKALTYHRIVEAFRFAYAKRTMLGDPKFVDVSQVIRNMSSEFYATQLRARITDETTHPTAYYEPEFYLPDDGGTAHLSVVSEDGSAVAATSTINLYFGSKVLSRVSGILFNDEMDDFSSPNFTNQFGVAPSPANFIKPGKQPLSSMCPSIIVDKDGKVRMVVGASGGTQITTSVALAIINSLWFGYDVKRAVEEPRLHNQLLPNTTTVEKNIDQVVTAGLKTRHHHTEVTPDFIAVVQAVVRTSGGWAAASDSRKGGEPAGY
Protocol: as §5

[7] = appKi obtained by varying GpNA, glygly fixed at 40 mM, uncompetitive, read-out: Inhibition of Transpeptidation (Alpha Ki)

Ki [2, 7]: 114 ± 8.4 µM
SMILES: COc1ccc(Cc2nnc(NS(=O)(=O)c3ccc([N+](=O)[O-])cc3)s2)cc1 [Compound 7]

Ki [2, 7]: 1110 µM
SMILES: COc1ccc(S(=O)(=O)Nc2nnc(Cc3ccc(OC)c(OC)c3)s2)cc1 [Compound 9]

Further lines, the compound ahead of its results:

SMILES: N[C@H](C(=O)O)[C@@H]1CC(Cl)=NO1 [Acivicin, acivicin, reference compound]
LD50 (786-O cells; human, 72 h): 0.81 µM | complete cure of metastatic melanoma to the liver, share of test animals [1]: 90%

SMILES: COc1ccc(Cc2nnc(NS(=O)(=O)c3ccccc3)s2)cc1 [Compound 3, N-[5-(4-methoxybenzyl)-1,3,4-thiadiazol-2-yl]benzenesulfonamide]
inhibition of GGT isolated from human kidney ([2]; 0-125 μM, 40 mM glycylglycine (FIG. 3)): inhibited GGT isolated from human kidney in a dose-dependent manner | type of inhibition with respect to GpNA ([2]; GpNA varied, glygly 40 mM): uncompetitive | Ki [2, 7]: 73.8 ± 2.5 µM | Ki ([2]; fit of data of FIGS. 4A-D to the equation for noncompetitive inhibition, read-out: Ki binding to the E form of the enzyme): > 200 µM | type of inhibition with respect to glygly ([2]; glygly varied, GpNA 3 mM): competitive | Ki ([2]; glygly varied, GpNA maintained at 3 mM, read-out: Ki, competitive with respect to glygly (intrinsic value)): 17.6 ± 3.8 µM | weaker binding to the E form ([2]; relative to binding in the presence of the γ-glutamyl moiety): > 10 fold | Ki ([3]; GpNA varied, 40 mM glycylglycine, read-out: appKi obtained varying GpNA): 58.2 ± 1.6 µM | Ki ([3]; glygly varied, 3 mM GpNA, read-out: appKi as a competitive inhibitor of glygly): 25 ± 2 µM | fold less toxic than acivicin (786-O cells; 786-O cells in log growth): more than 150 fold | toxicity relative to acivicin (786-O cells; 786-O cells in log growth): at least an order of magnitude less toxic than acivicin | fold less toxic than acivicin (786-O cells; 786-O cells in log growth, listed as compound 3): 150 fold | LD50 (786-O cells; dividing 786-O cells, 3 days with test compound, MTT): 128 µM | fold less potent than against GGT isolated from human kidney [4]: 7 fold | fold less potent than against GGT isolated from human kidney (GGT from mouse kidney): 10 fold | inhibition of GGT in human kidney cell lines [5]: dose-dependent inhibition | inhibition of GGT in rat kidney cell line (GGT in NRK-52E cells): only weakly inhibited | inhibition of GGT in pig kidney cell line (GGT in LLC-PK1 cells): not inhibited | inhibition of GGT in monkey kidney cell line (GGT in LLC-MK2 cells): only weakly inhibited | inhibition of human GGT expressed in mouse cells [6]: inhibited by compound 3 to the same extent as human GGT expressed in other human cells | inhibition of cleavage of glutathione (human kidney GGT; 1 mM glutathione, 40 mM glycylglycine, 62.5-500 uM compound (FIG. 6A)): inhibited the cleavage of glutathione in a dose-dependent manner; also recorded: inhibited glutathione breakdown by human GGT | inhibition of cleavage of oxidized glutathione (GSSG) (human kidney GGT; human GGT, data not shown): inhibited the cleavage of oxidized glutathione | inhibition of degradation of glutathione (GGT from rat kidney): unable to inhibit; also recorded: did not inhibit

SMILES: O=S(=O)(Nc1nnc(Cc2ccccc2)s1)c1ccc(Cl)cc1 [Compound 4]
Ki [2, 7]: 75.9 ± 1.7 µM

SMILES: N[C@@H](CCC(=O)Nc1ccc([N+](=O)[O-])cc1)C(=O)O [GpNA, L-glutamic acid γ-4-nitroanilide HCI, reference compound]
Michaelis constant of the substrate (Kglygly, KGpNA) [2]: 1.07 ± 0.04 mM

SMILES: NCC(=O)NCC(=O)O [glygly, glycyl-glycine, reference compound] (H-Gly-Gly-OH)
Michaelis constant of the substrate (Kglygly, KGpNA) [2]: 11.4 ± 1.2 mM
